Data set [1] is described as follows: MTT cell viability assay on MDBK cells. The format is cell-based, bovine. To be noted: bovine, MDBK cells (Madin–Darby bovine kidney); MDBK cells, MTT, 24 h exposure; read-out: CC50 with 95% CI on MDBK cells (cytotoxicity). How it is done: MTT cell viability assays were performed on Madin–Darby bovine kidney (MDBK cells) for the five selected hederagenin derivatives (MC014, MC035, MC042, MC055 and MC062) using final concentrations of 100 μM, 75 μM, 50 μM, 25 μM, 10 μM, 5 μM and 1 μM (in 1% DMSO). Negative (1% v/v Triton X-100, Sigma-Aldrich, UK) and positive (1% v/v DMSO or media only) controls were included. The protocol was followed as previously described. Absolute EC50 values were calculated from the corrected absorbance of replicates by non-linear regression, after log transformation of concentrations and data normalization (where DMSO values represents 0% inhibition and TX-100 values represent 100% inhibition) using GrapPad Prism 8.
A general note: Formazan colour is commonly taken as a measure of viable cells.

The test system of data set [2] is immature F. hepatica flukes (Italian strain). Description: Ex vivo motility assay on immature liver flukes (Italian strain), single concentration and dose response. The format is cell-based, Fasciola hepatica. As to conditions: 40 µM; for Average motility of 4 parasites with 95% CI at 24 hour time point / Average motility of 4 parasites with 95% CI at 48 hour time point / Average motility of 4 parasites with 95% CI at 72 hour time point: immature flukes; for Average motility of 4 parasites with 95% CI at 24 hour time point: score 1 normal to 5 no movement or death; for Average motility of 4 parasites with 95% CI at 48 hour time point / Average motility of 4 parasites with 95% CI at 72 hour time point: score 1 to 5; for Effect on immature fluke motility, in words: by 72 h. How it is done:
The six selected compounds (at 40 µM in 0.4% DMSO) were evaluated on immature flukes (n = 4/condition) at 24, 48 and 72 h (Table S4). The protocol for culturing and scoring (motility) of these life stages have been previously described. Due to restricted numbers of immature worms, a dose response assay was conducted only for MC042. Here, immature worms (n = 2/concentration tested) were screened against descending concentrations of MC042 (40 µM, 13.3 µM and 4.4 µM); motility scores were recorded at 24, 48 and 72 h (Table S5). The scoring pattern used is identical to that described for NEJs.

In data set [3] the test system is F. hepatica newly excysted juveniles (NEJs), Italian strain. Nature of the data set: Ex vivo screen against newly excysted juveniles (NEJs), phenotype and motility scoring. To be noted: 10 µM; for Average phenotype of 25 NEJs with 95% CI, 24 hours / Average phenotype of 25 NEJs with 95% CI, 48 hours / Average phenotype of 25 NEJs with 95% CI, 72 hours: ultrastructure score 1 normal to 6 dead or dissolved; for Activity against NEJs (first screen), in words: 72 h co-culture. The format is cell-based, Fasciola hepatica. In outline: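 Newly excysted juveniles of the Italian strain of F. hepatica were obtained by excysting metacercariae and exposed ex vivo to test compounds at 10 μM final concentration in 0.1% DMSO. Controls were 0.1% DMSO (negative) and 10 μM TCBZ in 0.1% DMSO (positive). Motility was scored from 1 (good/normal) to 5 (no movement), and ultrastructural phenotype changes were scored with an established matrix.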

Data set [4] concerns adult F. hepatica flukes (Italian strain). Nature of the data set: Ex vivo dose response motility assay on adult liver flukes (Italian strain). The format is cell-based, Fasciola hepatica. To be noted: for Selectivity Index (SI) on Adult Flukes SI=CC50/EC50, 72 hour: CC50 in MDBK cells (24 h) / EC50 adult flukes 72 h; for pEC50: Fasciola hepatica, adult flukes, motility, read-out: EC50 with 95% CI on Adult Flukes (motility), 72 hour; for Effect on adult fluke (Italian strain) movement, in words: dose response, MC042 statement at 40 μM after 72 h. The protocol:
The collection, ex vivo culturing and screening of adult liver fluke (Italian strain; n = 3/condition) was previously described. Dose response assays (40 µM, 13.3 µM and 4.4 µM) were conducted for MC014, MC042, MC035, MC055 and MC062 with motility scores recorded at 24, 48 and 72 h (Table S6).

Data set [5] has as its system wild strain adult F. hepatica. Nature of the data set: Ex vivo motility assay on adult liver flukes (wild strain). The format is cell-based, Fasciola hepatica. To be noted: 40 µM; for Effect on wild strain adult fluke motility, in words: 72 h; for Average motility of 4 parasites with 95% CI at 72 hour time point: wild strain adult flukes, score 1 good/normal to 6 no movement or dead. The protocol: Due to the high number of active molecules and a shortage of Italian strain adult liver flukes, the eleven hit compounds were screened for 72 h at 40 µM (in 0.4% DMSO) on wild strain adult F. hepatica (n = 4/condition) of unknown provenance (Table S3). The protocol for culturing and scoring (motility) the activity of these compounds was previously described (1—good/normal; 2—moderate; 3—resting (less than 10 s pulses of body and head), 4—apathetic (less than 2 s pulses of body and head), 5—paralysis and 6–no movement or dead worms). Six compounds were deemed active in these assays and were selected for further screening.

Setting [6] is: 4.4 µM, adult flukes Italian strain, score 1 to 6.
Where [7] appears, read: adult flukes Italian strain, score 1 to 6.
Where [8] appears, read: 72 h, adult flukes Italian strain, score 1 to 6.

Molecules are shown by their SMILES. pEC50: −log10 of the molar value.

This is an account of results in paper PMC10385850, “Modified Hederagenin Derivatives Demonstrate Ex Vivo Anthelmintic Activity against Fasciola hepatica” (Pharmaceutics, 2023).

Broadly, the CC50 is the concentration at which the toxic effect on the cells reaches its halfway point. For orientation: pEC50 means the EC50 on a negative log10 scale, so that one unit is a factor of ten.

For the compound `CC1(C)CC[C@]2(NC(=O)N3CCCC3)CC[C@]3(C)C(=CCC4[C@@]5(C)CC[C@H](O)[C@@](C)(CO)C5CC[C@]43C)C2C1` (stereo partly drawn) [MC055, N-((4aS,6aS,6bR,9R,10S,12aR)-10-Hydroxy-9-(hydroxymethyl)-2,2,6a,6b,9,12a-hexamethyl-1,3,4,5,6,6a,6b,7,8,8a,9,10,11,12,12a,12b,13,14b-octadecahydropicen-4a(2H)-yl)pyrrol-idine-1-carboxamide], in data set [1], the CC50 at 24 h came out at 34.7 µM. In data set [2], the “Average motility of 4 parasites with 95% CI at 24 hour time point” value is 2.75 (1.8;3.6); the “Average motility of 4 parasites with 95% CI at 48 hour time point” value is on record as 5.00 (5.0;5.0); the “Average motility of 4 parasites with 95% CI at 72 hour time point” value is recorded as 5.00 (5.0;5.0); the “Effect on immature fluke motility, in words” value is “paralyzed the assayed immature flukes”. Also, the “Average motility of 25 NEJs with 95% CI, 24 hours” value in data set [3] (24 h, motility score 1 good/normal to 5 no movement) was 5.00 (5.0;5.0). Besides, the “Average phenotype of 25 NEJs with 95% CI, 24 hours” value in data set [3] (24 h) is recorded as 6.00 (6.0;6.0). Besides, the “Average motility of 25 NEJs with 95% CI, 48 hours” value in data set [3] (48 h, motility score 1 good/normal to 5 no movement) is given as 5.00 (5.0;5.0). Besides, the “Average phenotype of 25 NEJs with 95% CI, 48 hours” value in data set [3] (48 h) is 6.00 (6.0;6.0). For the same compound, in data set [3] (72 h, motility score 1 good/normal to 5 no movement), the “Average motility of 25 NEJs with 95% CI, 72 hours” value is on record as 5.00 (5.0;5.0). The “Average phenotype of 25 NEJs with 95% CI, 72 hours” value in data set [3] (72 h) is given as 6.00 (6.0;6.0). For the same compound, the “Activity against NEJs (first screen), in words” value in data set [3] is “maximal alterations to both phenotype/ultrastructure and motility”. In addition, in data set [4] (setting [6]), the “Average motility of 3 parasites treated with 4.4 µM, 24 hours” value is given as 1.00 (1.0;1.0) and the “Average motility of 3 parasites treated with 4.4 µM, 48 hours” value was 1.00 (1.0;1.0). Also, the “Average motility of 3 parasites treated with 4.4 µM, 72 hours” value in data set [4] (4.4 µM, 72 h, adult flukes Italian strain, score 1 to 6) was 3.00 (3.0;3.0). Besides, in data set [4] (setting [7]), the “Average motility of 3 parasites treated with 13.3 µM, 24 hours” value is recorded as 1.00 (1.0;1.0); the “Average motility of 3 parasites treated with 13.3 µM, 48 hours” value is 1.00 (1.0;1.0); the “Average motility of 3 parasites treated with 40 µM, 24 hours” value was 3.00 (3.0;3.0); the “Average motility of 3 parasites treated with 40 µM, 48 hours” value is recorded as 3.66 (3.0;4.3). In data set [4] (setting [8]), the “Average motility of 3 parasites treated with 13.3 µM, 72 hours” value was 4.66 (3.3;5.9) and the “Average motility of 3 parasites treated with 40 µM, 72 hours” value is 5.00 (5.0;5.0). Moreover, in data set [4], the “Selectivity Index (SI) on Adult Flukes SI=CC50/EC50, 72 hour” value amounted to 5.72 and the “Effect on adult fluke (Italian strain) movement, in words” value is listed as “Decreased movement”. Further, the negative-log EC50 (pEC50) in data set [4] (72 h) is 5.22. Also, in data set [5], the “Effect on wild strain adult fluke motility, in words” value was “partial paralysis” and the “Average motility of 4 parasites with 95% CI at 72 hour time point” value was 5.25 (4.7;5.7).

Turning to `CN1CCN(C(=O)N[C@]23CCC(C)(C)CC2C2=CCC4[C@@]5(C)CC[C@@H]6OC(C)(C)OC[C@@]6(C)C5CC[C@@]4(C)[C@]2(C)CC3)CC1` (stereo partly drawn) [MC062, 4-Methyl-N-((4aR,6aR,6bS,8aS,14bR,16aS)-2,2,4a,6a,6b,11,11,14b-octamethyl-4a,5,6,6a, 6b,7,8,9,10,11, 12,12a,14,14a,14b,15,16,16a-octadecahydro-4H-piceno[3,4-d][1,3]dioxin-8a(4bH)-yl)piperazine-1-carboxamide], the CC50 at 24 h in data set [1] is 13.7 µM. In data set [2], the “Average motility of 4 parasites with 95% CI at 24 hour time point” value is 5.00 (5.0;5.0); the “Average motility of 4 parasites with 95% CI at 48 hour time point” value is recorded as 5.00 (5.0;5.0); the “Average motility of 4 parasites with 95% CI at 72 hour time point” value is reported as 5.00 (5.0;5.0); the “Effect on immature fluke motility, in words” value is recorded as “paralyzed the assayed immature flukes”. Moreover, the “Average phenotype of 25 NEJs with 95% CI, 24 hours” value in data set [3] (24 h) was 6.00 (6.0;6.0). The “Average phenotype of 25 NEJs with 95% CI, 48 hours” value in data set [3] (48 h) is on record as 6.00 (6.0;6.0). Further, the “Average phenotype of 25 NEJs with 95% CI, 72 hours” value in data set [3] (72 h) is 6.00 (6.0;6.0). The “Activity against NEJs (first screen), in words” value in data set [3] is “maximal alterations to both phenotype/ultrastructure and motility”. Also, in data set [4] (setting [6]), the “Average motility of 3 parasites treated with 4.4 µM, 24 hours” value was 1.00 (1.0; 1.0) and the “Average motility of 3 parasites treated with 4.4 µM, 48 hours” value was 1.00 (1.0; 1.0). Moreover, in data set [4] (setting [7]), the “Average motility of 3 parasites treated with 13.3 µM, 24 hours” value is on record as 1.00 (1.0; 1.0); the “Average motility of 3 parasites treated with 13.3 µM, 48 hours” value was 1.66 (1.0; 2.3); the “Average motility of 3 parasites treated with 40 µM, 24 hours” value is reported as 3.00 (3.0;3.0); the “Average motility of 3 parasites treated with 40 µM, 48 hours” value was 4.00 (4.0;4.0). Besides, in data set [4] (setting [8]), the “Average motility of 3 parasites treated with 13.3 µM, 72 hours” value is reported as 5.00 (5.0; 5.0) and the “Average motility of 3 parasites treated with 40 µM, 72 hours” value is given as 5.00 (5.0;5.0). Besides, in data set [4], the “Selectivity Index (SI) on Adult Flukes SI=CC50/EC50, 72 hour” value is 2.43 and the “Effect on adult fluke (Italian strain) movement, in words” value was “Decreased movement”. Also, the pEC50 in data set [4] (72 h) is 5.25. Also, in data set [5], the “Effect on wild strain adult fluke motility, in words” value is on record as “partial paralysis” and the “Average motility of 4 parasites with 95% CI at 72 hour time point” value is on record as 5.00 (5.0;5.0).
